Results from patent US9872847B2 (priority 2013, dated 2018).

Legend:
Harmaline-induced tremor = assay: animal or person; type: in vivo, male Sprague-Dawley rats; settings: po; for inhibition in vivo at 100 mg/kg / inhibition in vivo at 130 mg/kg / ED50: Rattus norvegicus; for inhibition in vivo at 100 mg/kg / inhibition in vivo at 130 mg/kg: 0.5 h, read-out: Protection % (percentage of activity compared to the vehicle only); for On-set time Mean ± S.E.M. / On-set time Median / Tremor score Mean ± S.E.M. / Tremor score Median: rat, in vivo
[1] = tested on: motor abilities on the Rotarod; assay: Neurotoxicity (Rotarod); type: in vivo; settings: protective index, mice
Method: The measurement of neurotoxicity of the test compounds was conducted by the method of Dunham and Miya [Dunham, N. W. and Miya, T. S. 1957. A note on a simple apparatus for detecting neurological deficit in rats and mice. J. Am. Pharm. Assoc. (Baltimore) 46: 208˜209]. In the method, motor abilities of the test animals can be determined by observing whether the test animals can walk without falling from a rotator, thereby determining the value of neurotoxicity of each compound. […] They were pre-trained on the rotarod (Rotarod; Columbus instrument, rota-max, USA) at 6 rpm for 5 min 24 hr prior to the test. The peak time was determined by administration test material's random dose for 0.5, 1, 2, 4 hour. […] The ratio of TD50 to ED50 (TD50/ED50) is called as a protective index, and useful as a parameter for comparison of pharmaceutical efficacy and neurotoxicity.

[2] = tested on: MES (electrical stimulus) seizure; assay: animal or person; type: in vivo, male ICR mice; settings: for Protection % (percentage of activity compared to the vehicle only): mouse, in vivo

C[C@@H](OC(N)=O)[C@@H](O)c1ccccc1Cl [Compound 4, 1-(2-chlorophenyl)-(S)-1-hydroxypropyl-(R)-2-carbamate]
inhibition in vivo at 100 mg/kg (Harmaline-induced tremor): 66.7%

C[C@H](OC(N)=O)[C@@H](O)c1ccccc1F [Compound 63, 1-(2-fluorophenyl)-(S)-1-hydroxypropyl-(S)-2-carbamate]
inhibition in vivo at 100 mg/kg (Harmaline-induced tremor): 83.3%

C[C@@H](OC(N)=O)[C@H](O)c1ccccc1Cl [Compound 2, 1-(2-chlorophenyl)-(R)-1-hydroxypropyl-(R)-2-carbamate]
PI(TD50/ED50 in MES) [1]: 7.3
inhibition in vivo at 130 mg/kg (Harmaline-induced tremor): 66.7%

C[C@H](OC(=O)NC1CC1)[C@@H](O)c1ccccc1Cl [Compound 25, 1-(2-chlorophenyl)-(R)-1-hydroxypropyl-(R)-2-N-cyclopropylcarbamate]
responders at 200 mg/kg ([2]; Mus musculus, po, read-out: Protection % (percentage of activity compared to the vehicle only)): 25%

C[C@H](OC(N)=O)[C@@H](O)c1ccccc1I [Compound 65, 1-(2-iodophenyl)-(S)-1-hydroxypropyl-(S)-2-carbamate]
ED50 (Harmaline-induced tremor): 19.2 mg/kg

CC[C@H](OC(N)=O)[C@@H](O)c1ccccc1I [Compound 67, 1-(2-iodophenyl)-(S)-1-hydroxybutyl-(S)-2-carbamate]
inhibition in vivo at 100 mg/kg (Harmaline-induced tremor): 83.3%

CC[C@H](OC(N)=O)[C@@H](O)c1ccc(Cl)cc1Cl [Compound 39, 1-(2,4-dichlorophenyl)-(S)-1-hydroxybutyl-(S)-2-carbamate]
inhibition in vivo at 130 mg/kg (Harmaline-induced tremor): 66.7%

C[C@H](OC(N)=O)[C@@H](O)c1ccccc1Cl [Compound 1, 1-(2-chlorophenyl)-(S)-1-hydroxypropyl-(S)-2-carbamate]
ED50 (Harmaline-induced tremor): 12.9 mg/kg
On-set time Mean ± S.E.M. (Harmaline-induced tremor; 5 mg/kg): 243 ± 7 s
On-set time Median (Harmaline-induced tremor; 5 mg/kg): 250 s
Tremor score Mean ± S.E.M. (Harmaline-induced tremor; 5 mg/kg): 4.8 ± 0.5
Tremor score Median (Harmaline-induced tremor; 5 mg/kg): 5.0
On-set time Mean ± S.E.M. (Harmaline-induced tremor; 10 mg/kg): 289 ± 19 s
On-set time Median (Harmaline-induced tremor; 10 mg/kg): 265 s
Tremor score Mean ± S.E.M. (Harmaline-induced tremor; 10 mg/kg): 3.6 ± 0.6
Tremor score Median (Harmaline-induced tremor; 10 mg/kg): 2.5
On-set time Mean ± S.E.M. (Harmaline-induced tremor; 20 mg/kg): 367 ± 21 s
On-set time Median (Harmaline-induced tremor; 20 mg/kg): 375 s
Tremor score Mean ± S.E.M. (Harmaline-induced tremor; 20 mg/kg): 1.8 ± 0.1
Tremor score Median (Harmaline-induced tremor; 20 mg/kg): 1.8

CC[C@H](OC(N)=O)[C@@H](O)c1ccccc1Cl [Compound 6, 1-(2-chlorophenyl)-(S)-1-hydroxybutyl-(S)-2-carbamate]
inhibition in vivo at 130 mg/kg (Harmaline-induced tremor): 75%

CCCNC(=O)O[C@@H](C)[C@@H](O)c1ccccc1Cl [Compound 16, 1-(2-chlorophenyl)-(S)-1-hydroxypropyl-(S)-2-N-propylcarbamate]
Protection % (percentage of activity compared to the vehicle only) [2]: 200 ^a(25%)

C[C@H](OC(N)=O)[C@H](O)c1ccccc1Cl [Compound 5, 1-(2-chlorophenyl)-(R)-1-hydroxypropyl-(S)-2-carbamate]
PI(TD50/ED50 in MES) [1]: 3.3

C[C@H](OC(N)=O)[C@@H](O)c1ccc(Cl)cc1Cl [Compound 36, 1-(2,4-dichlorophenyl)-(S)-1-hydroxypropyl-(S)-2-carbamate]
inhibition in vivo at 130 mg/kg (Harmaline-induced tremor): 83.3%

C[C@H](OC(N)=O)[C@@H](O)c1cccc(Cl)c1Cl [Compound 38, 1-(2,3-dichlorophenyl)-(S)-1-hydroxypropyl-(S)-2-carbamate]
inhibition in vivo at 100 mg/kg (Harmaline-induced tremor): 55%

C[C@H](OC(N)=O)[C@@H](O)c1c(Cl)cccc1Cl [Compound 37, 1-(2,6-dichlorophenyl)-(S)-1-hydroxypropyl-(S)-2-carbamate]
PI(TD50/ED50 in MES) [1]: 5.1
inhibition in vivo at 130 mg/kg (Harmaline-induced tremor): 91.7%

C[C@@H](OC(N)=O)[C@H](O)c1c(Cl)cccc1Cl [Compound 46, 1-(2,6-dichlorophenyl)-(R)-1-hydroxypropyl-(R)-2-carbamate]
inhibition in vivo at 100 mg/kg (Harmaline-induced tremor): 58.3%

CCCNC(=O)O[C@H](C)[C@H](O)c1ccccc1Cl (racemic) [Compound 30, 1-(2-chlorophenyl)-1-hydroxypropyl-2-propylcarbamate]
Protection % (percentage of activity compared to the vehicle only) [2]: 200 ^a(25%)

CC(C)[C@H](OC(N)=O)[C@@H](O)c1ccccc1Cl [Compound 9, 1-(2-chlorophenyl)-(S)-1-hydroxy-3-methyl-butyl-(S)-2-carbamate]
inhibition in vivo at 130 mg/kg (Harmaline-induced tremor): 58.3%

CC(OC(N)=O)C(O)c1ccccc1Cl (racemic) [Compound 3, 1-(2-chlorophenyl)-1-hydroxypropyl-2-carbamate]
PI(TD50/ED50 in MES) [1]: 12.0
inhibition in vivo at 130 mg/kg (Harmaline-induced tremor): 75%

CC(C)[C@H](OC(N)=O)[C@@H](O)c1c(Cl)cccc1Cl [Compound 42, 1-(2,6-dichlorophenyl)-(S)-1-hydroxy-3-methyl-butyl-(S)-2-carbamate]
inhibition in vivo at 100 mg/kg (Harmaline-induced tremor): 71.7%
